One test has as its system influenza. It counts as in vivo, pediatric patients. As to conditions: proven influenza patients group in the first study period and second study period.
The test system of test [1] is influenza virus infection. The following applies: treatment initiated within 48 hours of the onset of fever; cited from earlier work.

Each structure is given as a SMILES string.

Consider `CCOC(=O)C1=C[C@@H](OC(CC)CC)[C@H](NC(C)=O)[C@@H](N)C1` [Oseltamivir], for which, in the test on influenza, the “admission duration, Group A compared with group B” value is “significant shorter” and the “frequency in pneumonia, Group A compared with group B” value is “lesser frequency”. Moreover, in test [1], the “average duration of fever after the initiation of oseltamivir treatment” value is given as 1.7 days, the “patients afebrile (<37.5℃) within one day” value was 44% and the “patients recovered within two days” value is 86%.

Values taken from paper PMC3641313 (Korean Journal of Pediatrics, 2013).
